According to patent US20090269795A1, “Mutant alpha4betadelta GABAA receptor and methods of treating anxiety or irritability” (priority 2007, published 2009):

Experiments:
[1] = tested on: α5β2/3γ2 receptors; assay: Whole cell patch clamp of GABA-gated current, recombinant receptors in HEK-293 cells; type: cell-based, rat; conditions: 30 nM THP
Description: Recombinant receptors: Transfection—Plasmids obtained from S. Vicini (rat α1, α5, β2, β3 and γ2), P. Whiting (human α4 and δ) and N. L. Harrison (mouse α4) were propagated in E coli DH5α and prepared using Qiagen Maxi- or Midi-prep kits. (Rat, mouse and human α1, β2, β3 and γ2 subunits are identical or nearly identical.) All receptors were transfected at a 1:1:1 ratio, except α1β2γ2 (1:1:5)^12, α4βδ (5:1:5)^13 and α4β2γ2 (5:1:1). HEK-293 cells were maintained in medium (DMEM:Ham's F-12 1:1) supplemented with 10% fetal calf serum at 37° C. in a humid 5% CO2 atmosphere.
The pipet solution contained (in mM): N-methyl-D-glucamine chloride 120, Cs4BAPTA 5 (Calbiochem), Mg-ATP 5, and an ATP regeneration system (20 mM Tris phosphocreatine and creatine kinase). Internal [Cl^−] or the holding potential were varied, using gluconate as the anion, to alter the direction of Cl^− flow, corrected for the junction potential.
HEK-293 cells were maintained in medium (DMEM:Ham's F-12 1:1) supplemented with 10% fetal calf serum at 37° C. in a humid 5% CO2 atmosphere.

[2] = tested on: CA1 hippocampal pyramidal cells; assay: Input resistance and neuronal excitability (spiking), hippocampal slice; type: cell-based, mouse
Method: Tonic current was recorded as the difference current produced by 120 μM gabazine, which blocks all GABAA receptor, before and after 30 nM THP^24. Current was also recorded in response to 2 s 10 mV steps in the holding potential, and current-voltage curves generated to the steady-state current. Because fast-inactivating conductances would not be excluded in a voltage ramp, stable steady-state current responses were used instead to construct the current-voltage (IV) curves. Input resistance (Rm) was calculated from the current response to voltage steps from −60 to −40 mV using Ohm's Law. The reversal potential was determined by the […] of the IV curve (−90 to −10 mV). The gabazine-sensitive slope conductance was assessed as the slope of the linear portion of outward current plot recorded before and after THP after subtraction of the gabazine-generated current (in the presence of L-655,708 to block α5-GABAA receptors). Only data with a stable baseline and pipet access resistance <10 MΩ were included in the analysis.
Effects of THP on cell excitability were tested by monitoring spiking using cell attached patch recordings^31 in voltage clamp mode (−40 mV holding potential, 150 mM NaCl intrapipet solution) or assessing the current threshold to spiking and spike frequency in current clamp mode (0.01-0.3 nA steps, starting from −1 nA, 1 s duration). (More complete details are supplied in the Supplementary Methods.)

[3] = tested on: α4 and δ GABAA receptor subunits; assay: Western blot of hippocampal α4 and δ subunit expression; type: in vivo, mouse; conditions: replacement THP 10 mg kg−1 day−1 for 3 days
Description: Animal subjects. Prepubertal and pubertal female C57BL6 mice (3½-6 weeks old, +/+ and δ^−/−1) were housed in a reverse light:dark cycle (12:12). Both sets of mice were originally supplied by G. Homanics (Univ. of Pittsburgh), and were bred on site, with +/+ mice supplemented from Jackson Laboratories (Bar Harbor, Me.). Initially, age-matched+/+littermates of the δ^−/−were used as controls, but because they were indistinguishable from C57BL6, data from both groups were pooled. Genotyping of the tails verified that mice were homozygous δ^−/−. […] The onset of puberty was determined by vaginal opening, and pubertal mice tested on the day of first metestrus, identified by vaginal morphology and verification of first estrus the previous day. […] Individual stages of puberty were not distinguished, and pre-pubertal mice were used before any visible signs of pubertal development, assessed by development of the peri-vaginal area. […]
Western blot: Procedures were performed on hippocampal membranes at protein concentrations in the linear range (5-10 μg), as we have described^7. Following preparation of crude hippocampal membranes, individual protein concentrations were assessed using the Bradford assay. […] (The δ antibody was a generous gift from W. Sieghart.) Optical densities were quantified with One-Dscan software from a scanned image. […]

[4] = puberty, whole cell current clamp

## CC(=O)[C@H]1CC[C@H]2[C@@H]3CC[C@H]4C[C@H](O)CC[C@]4(C)[C@H]3CC[C@]12C [THP, 3α-OH-5α[β]-pregnan-20-one]
[1]
  effect on outward current: either increased or had no effect
[2]; 30 nM THP, puberty, 10 mV steps −60 to −40
  increase of input resistance: 38±5%
[2]; before puberty
  effect on input resistance: decreased input resistance
  effect on neuronal excitability: decreased neuronal excitability
[2]; puberty
  effect on spiking, cell-attached: increased spiking
[2]; [4]
  effect on action potential frequency: increased action potential frequency
  effect on current threshold for spiking (I threshold): reduced the amount of current necessary for triggering a spike
[2]; slices from δ−/− mice
  THP-induced increase of input resistance: not seen
  excitatory effect on neuronal firing: not observed
[3]
  effect on increased expression of α4 and δ subunits at onset of puberty: prevented
